Laboratory results published in paper PMC9881143 (2023).

Legend:
[1] = test system: THF-II-lotiTL (RNA, riboswitch) GGCGUGGUCCGUUCAACUCGUUCCUCGAAAGAGGAACUACGGGAGACGCC; assay: X-ray crystallography; conditions: co-crystal, 0.1 M sodium citrate pH 6.5, 1.5-2.5 M ammonium sulfate, 16 °C; RNA:ligand 1:5
[2] = test system: THF-II-lotiTL C22U mutant (RNA, riboswitch) GGCGUGGUCCGUUCAAUUCGUUCCUCGAAAGAGGAACUACGGGAGACGCC; assay: ITC; conditions: K+ 100 mM, Mg2+ (concentration not stated for this titration); 20 mM Tris-HCl pH 7.5, 1 mM TCEP, 25 °C; 0.75 mM ligand in syringe into 30 μM RNA
[3] = test system: THF-II-lotiTL U44C mutant (RNA, riboswitch) GGCGUGGUCCGUUCAACUCGUUCCUCGAAAGAGGAACCACGGGAGACGCC; assay: ITC; conditions: K+ 100 mM, Mg2+ (concentration not stated for this titration); 20 mM Tris-HCl pH 7.5, 1 mM TCEP, 25 °C; 0.75 mM ligand in syringe into 30 μM RNA
[4] = test system: THF-II-lotiTL U44A mutant (RNA, riboswitch) GGCGUGGUCCGUUCAACUCGUUCCUCGAAAGAGGAACAACGGGAGACGCC; assay: ITC; conditions: K+ 100 mM, Mg2+ (concentration not stated for this titration); 20 mM Tris-HCl pH 7.5, 1 mM TCEP, 25 °C; 0.75 mM ligand in syringe into 30 μM RNA
[5] = test system: THF-II-lotiTL C22G mutant (THF-II-lotiTL-C22G) (RNA, riboswitch) GGCGUGGUCCGUUCAAGUCGUUCCUCGAAAGAGGAACUACGGGAGACGCC; assay: ITC; conditions: K+ 100 mM, Mg2+ (concentration not stated for this titration); 20 mM Tris-HCl pH 7.5, 1 mM TCEP, 25 °C; 0.75 mM ligand in syringe into 30 μM RNA

Structure (SMILES) | binding [1] | binding [2] | binding [3] | binding [4] | binding [5]
C[C@H](O)[C@H](O)[C@H]1CNc2nc(N)[nH]c(=O)c2N1 | yes |  |  |  | 
Nc1nc2c(c(=O)[nH]1)N[C@@H](CNc1ccc(C(=O)N[C@@H](CCC(=O)O)C(=O)O)cc1)CN2 |  | no | no | no | no
Nc1nc2c(c(=O)[nH]1)N=C([C@H](O)[C@H](O)CO)CN2 | yes |  |  |  | 
Nc1nc2[nH]ccc2c(=O)[nH]1 | yes |  |  |  | 
